Where a name gives a salt, the structure may show the parent alone.
Columns and labels:
human TLR8 = target: T1, human TLR8 (Homo sapiens, UniProt Q9NR97); assay: HEK-Blue hTLR8 reporter cell assay (SEAP, NF-kB/AP-1) for stimulation of human TLR8; type: cell-based; settings: HEK-Blue hTLR8 cells; for EC50: 24 h incubation, SEAP readout, read-out: TLR8_EC50; for activation at 20 µM: 24 h, at 20000 nM
T1 construct: host or cells: HEK293 (HEK-Blue hTLR8)
T1 sequence (Q9NR97 27-1041): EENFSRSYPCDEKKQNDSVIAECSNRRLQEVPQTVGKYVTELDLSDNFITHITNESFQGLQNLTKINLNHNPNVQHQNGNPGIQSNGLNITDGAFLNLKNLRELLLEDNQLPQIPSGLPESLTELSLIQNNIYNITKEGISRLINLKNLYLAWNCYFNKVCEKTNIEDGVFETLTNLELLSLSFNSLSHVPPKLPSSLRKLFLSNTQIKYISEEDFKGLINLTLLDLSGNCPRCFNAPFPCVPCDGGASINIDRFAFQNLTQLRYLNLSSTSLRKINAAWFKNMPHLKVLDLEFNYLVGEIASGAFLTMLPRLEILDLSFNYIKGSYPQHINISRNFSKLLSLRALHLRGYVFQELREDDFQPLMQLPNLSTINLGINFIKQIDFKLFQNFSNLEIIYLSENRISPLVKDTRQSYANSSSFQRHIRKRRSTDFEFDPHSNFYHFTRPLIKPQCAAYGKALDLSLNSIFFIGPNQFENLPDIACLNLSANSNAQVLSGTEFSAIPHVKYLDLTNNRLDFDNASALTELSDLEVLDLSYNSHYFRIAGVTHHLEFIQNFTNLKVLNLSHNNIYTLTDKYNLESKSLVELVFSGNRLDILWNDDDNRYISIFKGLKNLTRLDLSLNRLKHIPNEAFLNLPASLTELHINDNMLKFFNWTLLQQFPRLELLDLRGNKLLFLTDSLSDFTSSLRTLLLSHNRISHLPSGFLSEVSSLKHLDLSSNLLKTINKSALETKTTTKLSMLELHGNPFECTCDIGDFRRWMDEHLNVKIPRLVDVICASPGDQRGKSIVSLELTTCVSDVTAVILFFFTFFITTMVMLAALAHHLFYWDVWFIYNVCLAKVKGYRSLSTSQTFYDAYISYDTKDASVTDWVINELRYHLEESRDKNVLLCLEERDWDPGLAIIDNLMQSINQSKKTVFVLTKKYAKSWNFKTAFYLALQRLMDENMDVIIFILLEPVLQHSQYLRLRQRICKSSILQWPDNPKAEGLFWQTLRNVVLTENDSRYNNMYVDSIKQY
Experimental: (§1) The below tests, involving measuring the in vitro activity of some compounds of the disclosure on TLR7 and TLR8, were carried out using the HEK-Blue™ cells as reporter.
(§2) In Vitro Assay for Studying the Stimulation of Human TLR7 and TLR8:
HEK-Blue™ hTLR7 Cells (#hkb-htlr7) and HEK-Blue™ hTLR8 Cells (#hkb-htlr8) from InvivoGen were used according to the manufacturer's instructions. These Reporter HEK293 cells were obtained by co-transfection of the hTLR7 or TLR8 gene and an optimized Secreted Embryonic Alkaline Phosphatase (SEAP) reporter gene which is placed under the control of the IFN-β minimal promoter fused to five NF-κB and AP-1-binding sites. Stimulation with a TLR7/8 ligand activates NF-kB and AP-1 which induce the production of SEAP. The cells are seeded in 96-well plate at 3.10E4 cells/well and incubated 18 to 24 h at 37° C., 5% CO2 before adding the compounds to evaluate. […] Next, 20 μL of the supernatant is harvested and incubated with 200 μL of QUANTI-Blue™ Solution.

human TLR7 = target: T2, human TLR7 (Homo sapiens, UniProt Q9NYK1); assay: HEK-Blue hTLR7 reporter cell assay (SEAP, NF-kB/AP-1) for stimulation of human TLR7; type: cell-based; settings: HEK-Blue hTLR7 cells; for EC50: 24 h incubation, SEAP readout, read-out: TLR7_EC50
T2 construct: host or cells: HEK293 (HEK-Blue hTLR7)
T2 sequence (Q9NYK1 27-1049): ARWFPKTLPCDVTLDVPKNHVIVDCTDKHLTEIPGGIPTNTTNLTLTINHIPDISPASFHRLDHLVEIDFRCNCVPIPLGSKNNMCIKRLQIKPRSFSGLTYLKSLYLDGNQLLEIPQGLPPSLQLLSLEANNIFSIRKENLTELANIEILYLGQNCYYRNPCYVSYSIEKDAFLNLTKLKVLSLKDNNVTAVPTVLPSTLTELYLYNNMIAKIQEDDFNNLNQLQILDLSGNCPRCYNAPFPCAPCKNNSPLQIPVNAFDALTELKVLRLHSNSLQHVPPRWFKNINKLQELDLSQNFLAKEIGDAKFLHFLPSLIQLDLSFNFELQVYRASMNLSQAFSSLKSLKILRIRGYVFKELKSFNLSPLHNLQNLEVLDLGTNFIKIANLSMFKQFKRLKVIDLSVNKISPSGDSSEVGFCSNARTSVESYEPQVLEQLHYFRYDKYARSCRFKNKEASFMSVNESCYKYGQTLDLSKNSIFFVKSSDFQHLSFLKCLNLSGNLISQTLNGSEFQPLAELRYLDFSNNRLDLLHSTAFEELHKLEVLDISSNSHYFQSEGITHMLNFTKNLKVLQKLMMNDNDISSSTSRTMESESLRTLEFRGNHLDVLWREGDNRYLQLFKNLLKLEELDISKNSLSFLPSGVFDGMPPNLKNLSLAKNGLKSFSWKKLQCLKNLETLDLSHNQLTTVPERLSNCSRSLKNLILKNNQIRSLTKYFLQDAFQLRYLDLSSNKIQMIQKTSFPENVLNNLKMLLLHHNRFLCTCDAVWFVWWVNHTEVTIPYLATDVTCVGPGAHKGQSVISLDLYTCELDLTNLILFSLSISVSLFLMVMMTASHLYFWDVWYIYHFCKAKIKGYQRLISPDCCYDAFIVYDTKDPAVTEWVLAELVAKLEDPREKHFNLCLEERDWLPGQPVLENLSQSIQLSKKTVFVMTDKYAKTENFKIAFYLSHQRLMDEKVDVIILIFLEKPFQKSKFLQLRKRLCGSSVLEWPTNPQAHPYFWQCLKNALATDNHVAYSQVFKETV
Experimental: as §1
The activity described below, with respect to TLR7, TLR8, IFN-α2a, IL-6, IL29 and TNF-α, is given by the half maximal effective concentration (EC50), which corresponds to the concentration required to obtain a 50% of the activation. The lower the EC50, the less the concentration of the compound is required to produce 50% of maximum activation and the higher the potency.
as §2
HEK-Blue™ hTLR7 Cells (#hkb-htlr7) and HEK-Blue™ hTLR8 Cells (#hkb-htlr8) from InvivoGen were used according to the manufacturer's instructions. These Reporter HEK293 cells were obtained by co-transfection of the hTLR7 or TLR8 gene and an optimized Secreted Embryonic Alkaline Phosphatase (SEAP) reporter gene which is placed under the control of the IFN-β minimal promoter fused to five NF-κB and AP-1-binding sites. Stimulation with a TLR7/8 ligand activates NF-kB and AP-1 which induce the production of SEAP. The cells are seeded in 96-well plate at 3.10E4 cells/well and incubated 18 to 24 h at 37° C., 5% CO2 before adding the compounds to evaluate. The cells are subsequently incubated with 3-fold serial dilutions of each of the compounds (0.01 to 20 μM) for 24 hours at 37° C., 5% CO2. Next, 20 μL of the supernatant is harvested and incubated with 200 μL of QUANTI-Blue™ Solution.

Row | EC50 (human TLR8) | EC50 (human TLR7) | activation at 20 µM (human TLR8) | activation at 20 µM (human TLR7; 24 h, at 20000 nM) | Structure (SMILES)
1 | > 20000 nM | 710 nM | – | – | CCCCc1nc2c(N)nnc(/C=C/C(C)C)c2n1Cc1ccc(OC)cc1 [Compound 12, (E)-2-butyl-1-(4-methoxybenzyl)-7-(3-methylbut-1-en-1-yl)-1H-imidazo[4,5-d]pyridazin-4-amine]
2 | 467 nM | 1130 nM | – | – | CCCCc1nc2c(N)nnc(N(C)Cc3ccc(CN4CCOCC4)cc3)c2n1C [Compound 44, 2-butyl-N7,1-dimethyl-N7-(4-(morpholinomethyl)benzyl)-1H-imidazo[4,5-d]pyridazine-4,7-diamine]
3 | 15500 nM | 55 nM | – | – | CCCCc1nc2c(N)nnc(OC(C)C)c2n1Cc1ccc(CNC(=O)CC)cc1 [Compound 103, N-(4-((4-amino-2-butyl-7-isopropoxy-1H-imidazo[4,5-d]pyridazin-1-yl)methyl)benzyl)propionamide]
4 | 546 nM | 22 nM | – | – | CCCCc1nc2c(N)nnc(OC(C)C)c2n1Cc1ccc(CNCCOC)cc1 [Compound 104, 2-butyl-7-isopropoxy-1-(4-(((2-methoxyethyl)amino)methyl)benzyl)-1H-imidazo[4,5-d]pyridazin-4-amine]
5 | – | 226 nM | 11% | – | CCCCc1nc2c(N)nnc(NCCCc3ccco3)c2n1Cc1ccc(OC)cc1 [Compound 94, 2-butyl-N7-(3-(furan-2-yl)propyl)-1-(4-methoxybenzyl)-1H-imidazo[4,5-d]pyridazine-4,7-diamine]
6 | > 20000 nM | 5980 nM | – | – | CCCCc1nc2c(N)nnc(OC(C)C)c2n1Cc1cccc(CNC(C)C)c1 [Compound 128, 2-butyl-7-isopropoxy-1-(3-((isopropylamino)methyl)benzyl)-1H-imidazo[4,5-d]pyridazin-4-amine dihydrochloride salt]
7 | > 20000 nM | 12600 nM | – | – | CCCCc1nc2c(N)nnc(OC(C)C)c2n1CCCCN [Compound 149, 3-(4-aminobutyl)-2-butyl-4-isopropoxy-imidazo[4,5-d]pyridazin-7-amine dihydrochloride salt]
8 | 398 nM | 205 nM | – | – | CCCSc1nc2c(N)nnc(OC(C)C)c2n1Cc1ccc(CN)cc1 [Compound 161, 3-[[4-(aminomethyl)phenyl]methyl]-4-isopropoxy-2-propylsulfanyl-imidazo[4,5-d]pyridazin-7-amine]
9 | > 20000 nM | 1020 nM | – | – | CCCCc1nc2c(N)nnc(C3CCCCC3)c2n1Cc1ccc(OC)cc1 [Compound 51, 2-butyl-7-cyclohexyl-1-(4-methoxybenzyl)-1H-imidazo[4,5-d]pyridazin-4-amine]
10 | > 20000 nM | 117 nM | – | – | CCCCCCCCCCC(=O)NCc1ccc(Cn2c(CCCC)nc3c(N)nnc(OC(C)C)c32)cc1 [Compound 29, N-(4-((4-amino-2-butyl-7-isopropoxy-1H-imidazo[4,5-d]pyridazin-1-yl)methyl)benzyl)undecanamide]
11 | > 20000 nM | 34.6 nM | – | – | CCCCc1nc2c(N)nnc(OC(C)C)c2n1CCCCCCN(C(C)=O)C1CCOCC1 [Compound 148, N-[6-(7-amino-2-butyl-4-isopropoxy-imidazo[4,5-d]pyridazin-3-yl)hexyl]-N-tetrahydropyran-4-yl-acetamide]
12 | > 20000 nM | 269 nM | – | – | CCCCc1nc2c(N)nnc(OC)c2n1Cc1ccc(OC)cc1 [Compound 50, 2-butyl-7-methoxy-1-(4-methoxybenzyl)-1H-imidazo[4,5-d]pyridazin-4-amine]
13 | > 20000 nM | 344 nM | – | – | CCCCc1nc2c(N)nnc(OC3CCOCC3)c2n1Cc1ccc(OC)cc1 [Compound 57, 2-butyl-1-(4-methoxybenzyl)-7-((tetrahydro-2H-pyran-4-yl)oxy)-1H-imidazo[4,5-d]pyridazin-4-amine]
14 | > 20000 nM | 551 nM | – | – | CCCCc1nc2c(N)nnc(OCc3ccccc3)c2n1Cc1ccc(OC)cc1 [Compound 52, 7-(benzyloxy)-2-butyl-1-(4-methoxybenzyl)-1H-imidazo[4,5-d]pyridazin-4-amine]
15 | > 20000 nM | 109 nM | – | – | CCCCc1nc2c(N)nnc(OC(C)C)c2n1C[C@H]1CC[C@H](N)CC1 [Compound 25]
16 | > 20000 nM | 3100 nM | – | – | CCCCc1nc2c(N)nnc(-c3ccc[nH]3)c2n1Cc1ccc(OC)cc1 [Compound 64, 2-butyl-1-(4-methoxybenzyl)-7-(1H-pyrrol-2-yl)-1H-imidazo[4,5-d]pyridazin-4-amine hydrochloride]
17 | – | – | 11.7% | 2.2% | CCCCc1nc2c(N)nnc(C3CCNC3)c2n1Cc1ccc(CN)cc1 (stereo not drawn) [Compound 145, 1-[[4-(aminomethyl)phenyl]methyl]-2-butyl-7-pyrrolidin-3-yl-imidazo[4,5-d]pyridazin-4-amine]
18 | 3830 nM | 71 nM | – | – | CCCCc1nc2c(N)nnc(OC(C)C)c2n1Cc1ccc(CN2CCOCC2)cc1 [Compound 102, 2-butyl-7-isopropoxy-1-(4-(morpholinomethyl)benzyl)-1H-imidazo[4,5-d]pyridazin-4-amine]

— patent US12583861B2, “Derivatives of imidazo[4,5-d]pyridazine, their preparation and their therapeutic application” (SANOFI, priority 2021, dated 2026)
